Source: BindingDB's records for doi:10.1016/0960-894X(96)00221-1 (1996)

Test: Compound was evaluated for inhibition of tyrosinase enzyme.

| SMILES | IC50 [µM] |
| --- | --- |
| O=C(N[C@@H](Cc1ccccc1)C(=O)O)OCc1cc(=O)c(O)co1 [(S)-2-(5-Hydroxy-4-oxo-4H-pyran-2-ylmethoxycarbonylamino)-3-phenyl-propionic acid] | 8 |
| CC(C)[C@H](NC(=O)OCc1cc(=O)c(O)co1)C(=O)OCc1cc(=O)c(O)co1 [(S)-2-(5-Hydroxy-4-oxo-4H-pyran-2-ylmethoxycarbonylamino)-3-methyl-butyric acid 5-hydroxy-4-oxo-4H-pyran-2-ylmethyl ester] | 2.39 |
| O=C(N[C@@H](Cc1ccccc1)C(=O)OCc1cc(=O)c(O)co1)OCc1cc(=O)c(O)co1 [(S)-2-(5-Hydroxy-4-oxo-4H-pyran-2-ylmethoxycarbonylamino)-3-phenyl-propionic acid 5-hydroxy-4-oxo-4H-pyran-2-ylmethyl ester] | 0.06 |
| C[C@H](NC(=O)OCc1cc(=O)c(O)co1)C(=O)O [(S)-2-(5-Hydroxy-4-oxo-4H-pyran-2-ylmethoxycarbonylamino)-propionic acid] | 23.2 |
| C[C@H](NC(=O)OCc1cc(=O)c(O)co1)C(=O)OCc1cc(=O)c(O)co1 [(S)-2-(5-Hydroxy-4-oxo-4H-pyran-2-ylmethoxycarbonylamino)-propionic acid 5-hydroxy-4-oxo-4H-pyran-2-ylmethyl ester] | 3.03 |

More lines, in order of falling IC50, values ahead:

| IC50 [µM] | SMILES |
| --- | --- |
| 16.7 | CC(C)[C@H](NC(=O)OCc1cc(=O)c(O)co1)C(=O)O [(S)-2-(5-Hydroxy-4-oxo-4H-pyran-2-ylmethoxycarbonylamino)-3-methyl-butyric acid] |
| 15.3 | CC[C@H](C)[C@H](NC(=O)OCc1cc(=O)c(O)co1)C(=O)O |
| 14.5 | CC(C)C[C@H](NC(=O)OCc1cc(=O)c(O)co1)C(=O)O [(S)-2-(5-Hydroxy-4-oxo-4H-pyran-2-ylmethoxycarbonylamino)-4-methyl-pentanoic acid] |
| 2 | CC(C)C[C@H](NC(=O)OCc1cc(=O)c(O)co1)C(=O)OCc1cc(=O)c(O)co1 [(S)-2-(5-Hydroxy-4-oxo-4H-pyran-2-ylmethoxycarbonylamino)-4-methyl-pentanoic acid 5-hydroxy-4-oxo-4H-pyran-2-ylmethyl ester] |
| 0.7 | CC[C@H](C)[C@H](NC(=O)OCc1cc(=O)c(O)co1)C(=O)OCc1cc(=O)c(O)co1 |
